The structures appear in SMILES notation. Where a name gives a salt, the structure may show the parent alone. Read-outs that look alike come from different tables or passages of the source.

What all share (assay): AK assay 384-well format, Prestwick library screening
The subject of assay [1] is A. baumannii strain 98-37-09. Format: cell-based, Acinetobacter baumannii. The conditions noted are these: 50 μM final drug concentration; for fold induction at 50 µM: Acinetobacter baumannii, 983709, 3 h.
The subject of assay [2] is S. aureus strain USA300-0114. Format: cell-based, Staphylococcus aureus. The following applies: 50 μM final drug concentration; for fold induction at 50 µM: Staphylococcus aureus, USA300, 3 h.
In another assay the test system is K. pneumoniae. Format: cell-based, Klebsiella pneumoniae. The following applies: 50 μM final drug concentration; for fold induction at 50 µM: Klebsiella pneumoniae, 3 h.
A further assay concerns E. cloacae. It counts as cell-based, Enterobacter cloacae. The following applies: 50 μM final drug concentration; for fold induction at 50 µM: Enterobacter cloacae, 3 h.
In the next assay the test system is P. aeruginosa. Format: cell-based, Pseudomonas aeruginosa. The conditions noted are these: 50 μM final drug concentration; for fold induction at 50 µM: Pseudomonas aeruginosa, 3 h.
Another assay concerns E. faecium. Format: cell-based, Enterococcus faecium. The following applies: 50 μM final drug concentration; for fold induction at 50 µM: Enterococcus faecium, 3 h.
For the next assay, the system named is E. coli. Format: cell-based, Escherichia coli. The following applies: 50 μM final drug concentration; for fold induction at 50 µM: Escherichia coli, 3 h.
The mark [3] stands for this setting: planktonic, cutoff for positive-scoring molecules 3-fold increase, read-out: AK-based Prestwick Library Screening Results, A. baumannii (fold increase in extracellular AK activity).
Setting [4] is: planktonic, cutoff for positive-scoring molecules 3-fold increase, read-out: AK-based Prestwick Library Screening Results, S. aureus (fold increase in extracellular AK activity).
The mark [5] stands for this setting: planktonic, cutoff for positive-scoring molecules 3-fold increase, read-out: AK-based Prestwick Library Screening Results, K. pneumoniae (fold increase in extracellular AK activity).
The mark [6] stands for this setting: planktonic, cutoff for positive-scoring molecules 3-fold increase, read-out: AK-based Prestwick Library Screening Results, E. cloacae (fold increase in extracellular AK activity).
Where [7] appears, read: planktonic, cutoff for positive-scoring molecules 3-fold increase, read-out: AK-based Prestwick Library Screening Results, P. aeruginosa (fold increase in extracellular AK activity).
Setting [8] is: planktonic, cutoff for positive-scoring molecules 3-fold increase, read-out: AK-based Prestwick Library Screening Results, E. faecium (fold increase in extracellular AK activity).
[9] abbreviates: planktonic, cutoff for positive-scoring molecules 3-fold increase, read-out: AK-based Prestwick Library Screening Results, E. coli (fold increase in extracellular AK activity).
The mark [10] stands for this setting: planktonic A. baumannii, 384-well, cutoff for positive-scoring molecules 3-fold increase, read-out: AK-based Prestwick Library Screening Results: A. baumannii (increase in extracellular AK activity).
Where [11] appears, read: planktonic S. aureus, 384-well, cutoff for positive-scoring molecules 3-fold increase, read-out: AK-based Prestwick Library Screening Results: S. aureus (increase in extracellular AK activity).
The mark [12] stands for this setting: planktonic K. pneumoniae, 384-well, cutoff for positive-scoring molecules 3-fold increase, read-out: AK-based Prestwick Library Screening Results: K. pneumoniae (increase in extracellular AK activity).
Setting [13] is: planktonic E. cloacae, 384-well, cutoff for positive-scoring molecules 3-fold increase, read-out: AK-based Prestwick Library Screening Results: E. cloacae (increase in extracellular AK activity).
[14] abbreviates: planktonic P. aeruginosa, 384-well, cutoff for positive-scoring molecules 3-fold increase, read-out: AK-based Prestwick Library Screening Results: P. aeruginosa (increase in extracellular AK activity).
The mark [15] stands for this setting: planktonic E. faecium, 384-well, cutoff for positive-scoring molecules 3-fold increase, read-out: AK-based Prestwick Library Screening Results: E. faecium (increase in extracellular AK activity).
[16] abbreviates: planktonic E. coli, 384-well, cutoff for positive-scoring molecules 3-fold increase, read-out: AK-based Prestwick Library Screening Results: E. coli (increase in extracellular AK activity).

Take `CCN1CCCC1CNC(=O)c1cc(S(N)(=O)=O)ccc1OC` (stereo not drawn) [Sulpiride]: the fold induction at 50 µM in assay [1] (planktonic A. baumannii, 384-well, […], read-out: AK-based Prestwick Library Screening Results: A. baumannii (increase in extracellular AK activity)) was determined as 1; in assay [2] (planktonic S. aureus, 384-well, […], read-out: AK-based Prestwick Library Screening Results: S. aureus (increase in extracellular AK activity)), 1.1; in the assay with K. pneumoniae (planktonic K. pneumoniae, 384-well, […], read-out: AK-based Prestwick Library Screening Results: K. pneumoniae (increase in extracellular AK activity)) it was 1; in the assay with E. cloacae (planktonic E. cloacae, 384-well, […], read-out: AK-based Prestwick Library Screening Results: E. cloacae (increase in extracellular AK activity)), 1.6; with P. aeruginosa (planktonic P. aeruginosa, 384-well, […], read-out: AK-based Prestwick Library Screening Results: P. aeruginosa (increase in extracellular AK activity)), 1.1; with E. faecium (planktonic E. faecium, 384-well, […], read-out: AK-based Prestwick Library Screening Results: E. faecium (increase in extracellular AK activity)), 1. For the same compound, in the assay with E. coli (planktonic E. coli, 384-well, […], read-out: AK-based Prestwick Library Screening Results: E. coli (increase in extracellular AK activity)), the fold induction at 50 µM is 1.

As to `CC(C(=O)O)c1ccc(C(=O)c2cccs2)cc1` (stereo not drawn) [Suprofen], the fold induction at 50 µM was determined as 0.8 in assay [1] (setting [3]); 0.6 in assay [2] (setting [4]); 0.7 in the assay with K. pneumoniae (setting [5]); 0.9 with E. cloacae (setting [6]); 0.7 with P. aeruginosa (setting [7]); 0.9 in the assay with E. faecium (setting [8]). Also, the fold induction at 50 µM with E. coli (setting [9]) was 0.7.

Regarding `CCCCC1(COC(=O)CCC(=O)O)C(=O)N(c2ccccc2)N(c2ccccc2)C1=O` [Suxibuzone], the fold induction at 50 µM came to 0.8 in assay [1] (setting [3]); 0.6 in assay [2] (setting [4]); 0.6 in the assay with K. pneumoniae (setting [5]); 0.8 in the assay with E. cloacae (setting [6]); 0.6 with P. aeruginosa (setting [7]); 0.9 with E. faecium (setting [8]). For the same compound, the fold induction at 50 µM in the assay with E. coli (setting [9]) turned out to be 0.6.

With `CCOC(=O)Oc1c(OC)cc(C(=O)O[C@@H]2C[C@@H]3CN4CCc5c([nH]c6cc(OC)ccc56)[C@H]4C[C@@H]3[C@H](C(=O)OC)[C@H]2OC)cc1OC` [Syrosingopine], the fold induction at 50 µM stood at 0.6 in assay [1] (planktonic A. baumannii, cutoff for positive-scoring molecules 3-fold increase, read-out: AK-based Prestwick Library Screening Results, A. baumannii (increase in extracellular AK activity)); 0.3 in assay [2] (planktonic S. aureus, cutoff for positive-scoring molecules 3-fold increase, read-out: AK-based Prestwick Library Screening Results, S. aureus (increase in extracellular AK activity)); 0.5 with K. pneumoniae (planktonic K. pneumoniae, cutoff for positive-scoring molecules 3-fold increase, read-out: AK-based Prestwick Library Screening Results, K. pneumoniae (increase in extracellular AK activity)); 0.6 with E. cloacae (planktonic E. cloacae, cutoff for positive-scoring molecules 3-fold increase, read-out: AK-based Prestwick Library Screening Results, E. cloacae (increase in extracellular AK activity)); 0.5 in the assay with P. aeruginosa (planktonic P. aeruginosa, cutoff for positive-scoring molecules 3-fold increase, read-out: AK-based Prestwick Library Screening Results, P. aeruginosa (increase in extracellular AK activity)); 0.9 with E. faecium (planktonic E. faecium, cutoff for positive-scoring molecules 3-fold increase, read-out: AK-based Prestwick Library Screening Results, E. faecium (increase in extracellular AK activity)). The fold induction at 50 µM with E. coli (planktonic E. coli, cutoff for positive-scoring molecules 3-fold increase, read-out: AK-based Prestwick Library Screening Results, E. coli (increase in extracellular AK activity)) turned out to be 0.6.

For `Cl.O=c1[nH]oc2c1CCNC2` [THIP Hydrochloride], in assay [1] ([…]), the “AK-based Prestwick Library Screening Results, A. baumannii (fold increase in extracellular AK activity)” value stood at 0.6. Besides, in assay [2] ([…]), the “AK-based Prestwick Library Screening Results, S. aureus (fold increase in extracellular AK activity)” value is given as 0.6. In addition, the “AK-based Prestwick Library Screening Results, K. pneumoniae (fold increase in extracellular AK activity)” value in the assay on K. pneumoniae ([…]) is 0.6. The “AK-based Prestwick Library Screening Results, E. cloacae (fold increase in extracellular AK activity)” value in the assay on E. cloacae ([…]) was 0.8. In the assay with P. aeruginosa ([…]), the “AK-based Prestwick Library Screening Results, P. aeruginosa (fold increase in extracellular AK activity)” value is reported as 0.6. In the assay with E. faecium ([…]), the “AK-based Prestwick Library Screening Results, E. faecium (fold increase in extracellular AK activity)” value was 1.0. Also, the “AK-based Prestwick Library Screening Results, E. coli (fold increase in extracellular AK activity)” value in the assay with E. coli ([…]) amounted to 0.6.

For `Nc1c2c(nc3ccccc13)CCCC2` [Tacrine hydrochloride hydrate], the fold induction at 50 µM in assay [1] (setting [10]) was determined as 0.5; in assay [2] (setting [11]), 0.5; with K. pneumoniae (setting [12]) it was 0.4; in the assay on E. cloacae (setting [13]) it was 0.4; in the assay with P. aeruginosa (setting [14]) it was 0.5; in the assay on E. faecium (setting [15]), 0.9. The fold induction at 50 µM in the assay on E. coli (setting [16]) is 0.5.

On to `CC1(C)S[C@@H]2[C@H](NC(=O)[C@H](N)c3ccccc3)C(=O)N2[C@H]1C(=O)OC1OC(=O)c2ccccc21` (stereo partly drawn) [Talampicillin hydrochloride], for which the fold induction at 50 µM in assay [1] (planktonic A. baumannii, […], read-out: AK-based Prestwick library screening result, A. baumannii (fold increase in extracellular AK activity)) turned out to be 0.8; in assay [2] (planktonic S. aureus, […], read-out: AK-based Prestwick library screening result, S. aureus (fold increase in extracellular AK activity)) it was 1.2; in the assay with K. pneumoniae (planktonic K. pneumoniae, […], read-out: AK-based Prestwick library screening result, K. pneumoniae (fold increase in extracellular AK activity)), 0.8; in the assay on E. cloacae (planktonic E. cloacae, […], read-out: AK-based Prestwick library screening result, E. cloacae (fold increase in extracellular AK activity)), 1.6; in the assay on P. aeruginosa (planktonic P. aeruginosa, […], read-out: AK-based Prestwick library screening result, P. aeruginosa (fold increase in extracellular AK activity)), 1.1; in the assay on E. faecium (planktonic E. faecium, […], read-out: AK-based Prestwick library screening result, E. faecium (fold increase in extracellular AK activity)), 1.4. Moreover, the fold induction at 50 µM in the assay with E. coli (planktonic E. coli, […], read-out: AK-based Prestwick library screening result, E. coli (fold increase in extracellular AK activity)) was 15.2.

Take `CC/C(=C(\c1ccccc1)c1ccc(OCCN(C)C)cc1)c1ccccc1` [Tamoxifen citrate]: the fold induction at 50 µM came to 6.6 in assay [1] (setting [10]); 2.1 in assay [2] (setting [11]); 2.1 with K. pneumoniae (setting [12]); 1.3 in the assay with E. cloacae (setting [13]); 1.4 in the assay on P. aeruginosa (setting [14]); 4 with E. faecium (setting [15]). Also, in the assay with E. coli (setting [16]), the fold induction at 50 µM is 1.9.

As for `Cc1scc2c1N(C(=O)CN1CCN(C)CC1)c1ccccc1NC2=O` [Telenzepine dihydrochloride], the fold induction at 50 µM in assay [1] (setting [10]) was found to be 1.6; in assay [2] (setting [11]), 1.3; in the assay with K. pneumoniae (setting [12]), 1; with E. cloacae (setting [13]) it was 1.4; with P. aeruginosa (setting [14]), 1.2; in the assay on E. faecium (setting [15]), 1.1. Besides, the fold induction at 50 µM in the assay on E. coli (setting [16]) amounted to 1.5.

For the origin of these results see patent publication US10004701B2, “Methods and compositions for treating infection” (UNIVERSITY OF ROCHESTER, priority 2012, dated 2018).
